Drawing on PubChem BioAssay (NCI), this text covers TGI for 9 compounds.

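Dose response: 5 concentrations. Exposure: 48 h. Format: 96-well plates. Endpoint: linear interpolation; highest concentration if not reached. At the TGI there is no net growth.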

Among the test systems are 786-0 renal; HS 578T breast; K-562 leukemia; KM12 colon; MDA-N; NCI-H226 lung; NCI-H23 lung; NCI-H460 lung; NCI/ADR-RES ovarian; OVCAR-4 ovarian; SW-620 colon; U251 CNS; UACC-257 melanoma; UACC-62 melanoma; ACHN renal; EKVX NSCLC; MDA-MB-435; SF-295 CNS; SNB-19 CNS.
Common to all, as to assay: NCI tumour cell line growth inhibition, 48 h

In the case of `COc1ccc(/C(C)=N/NC(=O)c2ccncc2)cc1OC`, the TGI in the assay on 786-0 renal, in the assay on HS 578T breast, with K-562 leukemia, in the assay on KM12 colon, in the assay with MDA-N and with NCI-H226 lung was over 10 µM in each case. The TGI with NCI-H23 lung, in the assay with NCI-H460 lung, in the assay on NCI/ADR-RES ovarian, in the assay on OVCAR-4 ovarian, in the assay with SW-620 colon and with U251 CNS was over 10 µM throughout. The TGI in the assay on UACC-257 melanoma and in the assay with UACC-62 melanoma was over 10 µM in each case.
As for `O=Cc1ccc(-c2cccc([N+](=O)[O-])c2)s1`, the TGI in the assay with 786-0 renal, with ACHN renal, in the assay with EKVX NSCLC, in the assay on HS 578T breast, with K-562 leukemia and in the assay with KM12 colon was over 100 µM in each case. Further, the TGI in the assay with MDA-MB-435, with NCI-H226 lung, with NCI-H23 lung, in the assay with NCI-H460 lung, with NCI/ADR-RES ovarian and with OVCAR-4 ovarian was over 100 µM each time. The TGI in the assay on SF-295 CNS, in the assay on SNB-19 CNS, with SW-620 colon, in the assay with U251 CNS, in the assay on UACC-257 melanoma and in the assay with UACC-62 melanoma was over 100 µM each time.
In the case of `Clc1ccccc1-c1nnc2c(-c3ccccc3)nc3ccccc3n12`, the TGI in the assay with 786-0 renal, with ACHN renal, with EKVX NSCLC, in the assay with K-562 leukemia, in the assay on KM12 colon and in the assay with MDA-MB-435 was over 100 µM each time. Besides, the TGI with MDA-N, with NCI-H226 lung, in the assay on NCI-H23 lung, with NCI-H460 lung, in the assay with NCI/ADR-RES ovarian and in the assay on OVCAR-4 ovarian was over 100 µM in each case. Besides, the TGI in the assay with SNB-19 CNS, in the assay with SW-620 colon, with U251 CNS, in the assay with UACC-257 melanoma and in the assay on UACC-62 melanoma was over 100 µM in each case.
In the case of `O=S1c2ccccc2SCSc2ccccc21`, the TGI is over 100 µM with 786-0 renal; over 100 µM with ACHN renal; 75.8 µM with K-562 leukemia; over 100 µM in the assay on KM12 colon; over 100 µM in the assay with MDA-N; over 100 µM with NCI-H23 lung. Moreover, the TGI with NCI-H460 lung, with NCI/ADR-RES ovarian, in the assay on OVCAR-4 ovarian, in the assay on SF-295 CNS, in the assay on SNB-19 CNS and with U251 CNS was over 100 µM each time. For the same compound, in the assay with UACC-62 melanoma, the TGI is over 100 µM.
Regarding `CC(=O)OCC1OC(n2c(C)c(C(C)=O)c(-c3cccc4ccccc34)c(C#N)c2=S)C(OC(C)=O)C(OC(C)=O)C1OC(C)=O` (stereo not given), the TGI in the assay on 786-0 renal, in the assay with ACHN renal, with EKVX NSCLC, with K-562 leukemia, in the assay on KM12 colon and in the assay on MDA-MB-435 was over 100 µM throughout. Further, the TGI in the assay on MDA-N, with NCI-H226 lung, in the assay on NCI-H23 lung, with NCI-H460 lung, in the assay on NCI/ADR-RES ovarian and in the assay with OVCAR-4 ovarian was over 100 µM each time. The TGI in the assay on SF-295 CNS, in the assay on SNB-19 CNS, in the assay on SW-620 colon, in the assay with U251 CNS, in the assay with UACC-257 melanoma and in the assay with UACC-62 melanoma was over 100 µM throughout.
As to `CCSC(=O)/C=C1\CN(C(=O)OC(C)(C)C)C1C(=O)OC(C)(C)C` (stereo not given), the TGI with 786-0 renal worked out at 6.23 µM; in the assay on ACHN renal it was 8.82 µM; with EKVX NSCLC, 26 µM; in the assay on HS 578T breast, 19.4 µM; with K-562 leukemia, 4.63 µM; in the assay on KM12 colon it was 12.3 µM. Also, the TGI was 8.63 µM in the assay on MDA-MB-435; 27.5 µM in the assay with NCI-H226 lung; 8.7 µM in the assay with NCI-H23 lung; 23.2 µM in the assay with NCI-H460 lung; over 23.7 µM in the assay on NCI/ADR-RES ovarian; 7.44 µM with OVCAR-4 ovarian. For the same compound, the TGI with SF-295 CNS stood at 25 µM; in the assay with SNB-19 CNS it was 25.5 µM; in the assay on SW-620 colon, 4.1 µM; in the assay with U251 CNS, 19.2 µM; with UACC-257 melanoma, 8.91 µM; with UACC-62 melanoma it was 10.6 µM.
On to `COc1cc(C2c3cc4c(cc3OC(NCc3ccccc3)C2C)OCO4)cc(OC)c1OC` (stereo not given), for which the TGI was 44.1 µM in the assay with 786-0 renal; over 39.8 µM in the assay with ACHN renal; over 100 µM with EKVX NSCLC; over 37.8 µM in the assay with K-562 leukemia; 5.69 µM in the assay with KM12 colon; 7.33 µM in the assay on NCI-H226 lung. For the same compound, the TGI is over 48.2 µM in the assay on NCI-H23 lung; over 34.7 µM with NCI-H460 lung; 0.723 µM with NCI/ADR-RES ovarian; over 100 µM with OVCAR-4 ovarian; 0.673 µM with SF-295 CNS; over 100 µM with SNB-19 CNS. The TGI in the assay with SW-620 colon was over 36 µM; in the assay on U251 CNS, 21.2 µM; in the assay on UACC-257 melanoma, over 100 µM; in the assay on UACC-62 melanoma it was 14.1 µM.
Regarding `O=C(Cc1ccccc1)NNc1nc(NNC(=O)c2ccncc2)nc(Nc2ccc(Cl)cc2)n1`, the TGI in the assay with 786-0 renal, with EKVX NSCLC, with HS 578T breast, in the assay on K-562 leukemia, in the assay on KM12 colon and in the assay with MDA-N was over 10 µM each time. Moreover, the TGI with NCI-H23 lung, in the assay with NCI/ADR-RES ovarian, with OVCAR-4 ovarian, in the assay on SW-620 colon, with U251 CNS and with UACC-257 melanoma was over 10 µM each time. In the assay on UACC-62 melanoma, this compound had a TGI of over 10 µM.
On to `CSC(=S)OC1C(CO[Si](C)(C)C(C)(C)C)OC2OC(C)(C)OC21` (stereo not given), for which the TGI with 786-0 renal was 42 µM; in the assay on ACHN renal, 31.3 µM; in the assay on EKVX NSCLC it was 60.1 µM; in the assay with K-562 leukemia, 31 µM; in the assay on KM12 colon, 30.4 µM; with MDA-MB-435, over 100 µM. Moreover, the TGI was over 100 µM with MDA-N; 29.7 µM in the assay with NCI-H226 lung; 44.3 µM with NCI-H23 lung; 32.8 µM in the assay with NCI-H460 lung; 36.2 µM in the assay with NCI/ADR-RES ovarian; over 100 µM with OVCAR-4 ovarian. In addition, the TGI with SF-295 CNS was found to be 32.2 µM; with SNB-19 CNS it was 47 µM; in the assay on SW-620 colon it was 31.9 µM; in the assay on U251 CNS it was 31.8 µM; in the assay with UACC-257 melanoma, 34.8 µM; with UACC-62 melanoma, 36.1 µM.
